# Reference: patent US8680269B2, “Pesticidal compositions” (Dow AgroSciences, LLC., priority 2009, dated 2014)
# Experiments:
# [1] = tested on: beet armyworm (BAW; Spodoptera exigua); assay: Insecticidal test for beet armyworm, 128-well diet tray assay; format: in vivo; conditions: 144 h, 50 μg/cm2 on artificial diet, second instar larvae, six days at 25° C.
# Experimental: (§1) Bioassays on beet armyworm (BAW; Spodoptera exigua: Lepidoptera) were conducted using a 128-well diet tray assay. Three to five second instar BAW larvae were placed in each well (3 mL) of the diet tray that had been previously filled with 1 mL of artificial diet to which 50 μg/cm^2 of the test compound (dissolved in 50 μL of 90:10 acetone-water mixture) had been applied (to each of eight wells) and then allowed to dry. Trays were covered with a clear self-adhesive cover, and held at 25° C., 14:10 light-dark for six days. Percent mortality was recorded for the larvae in each well; activity in the eight wells was then averaged.
# [2] = tested on: corn earworm (CEW; Helicoverpa zea); assay: Insecticidal test for corn earworm, 128-well diet tray assay; format: in vivo; conditions: 144 h, 50 μg/cm2 on artificial diet, second instar larvae, six days at 25° C.
# Experimental: as §1, with “corn earworm (CEW; Helicoverpa zea:” for “beet armyworm (BAW; Spodoptera exigua:”, “CEW” for “BAW”
Compound,mortality at 50 µg/cm2 [1] [%],mortality at 50 µg/cm2 [2] [%]
Cc1cccc(C)c1NC(=S)N/N=C/c1ccc(-c2ccn(-c3ccc(OC(F)(F)F)cc3)n2)cc1 [Compound 136],50 to 100,50 to 100
Cc1cccc(C)c1NC(=S)N/N=C/c1ccc(-c2cnn(-c3ccc(OC(F)(F)F)cc3)c2)cc1 [Compound 138],50 to 100,50 to 100
FC(F)(F)Oc1ccc(-n2cnc(-c3ccc(/C=N/NC(=S)Nc4ccccc4I)cc3)n2)cc1 [Compound 60],50 to 100,50 to 100
Cc1cc(C)c(NC(=S)N/N=C/c2ccc(-c3ncn(-c4ccc(OC(F)(F)F)cc4)n3)cc2)c(C)c1 [Compound 93],50 to 100,50 to 100
Cc1cc(Cl)cc(C)c1NC(=S)N/N=C/c1ccc(-c2ncn(-c3ccc(OC(F)(F)F)cc3)n2)cc1 [Compound 114],50 to 100,50 to 100
COc1ccc(C(C)NC(=S)N/N=C/c2ccc(-c3ncn(-c4ccc(OC(F)(F)F)cc4)n3)cc2)cc1 (stereo not drawn) [Compound 143],50 to 100,50 to 100
FC(F)(F)Oc1ccc(-n2cnc(-c3ccc(/C=N/NC(=S)NC4CCc5ccccc54)cc3)n2)cc1 (stereo not drawn) [Compound 145],50 to 100,50 to 100
COc1ccc(NC(=S)N/N=C/c2ccc(-c3ncn(-c4ccc(OC(F)(F)C(F)(F)F)cc4)n3)cc2)c(C)c1 [Compound 122],50 to 100,50 to 100
CCc1cc(OC)ccc1NC(=S)N/N=C/c1ccc(-c2ncn(-c3ccc(OC(F)(F)F)cc3)n2)cc1 [Compound 111],50 to 100,50 to 100
CCc1cccc(CC)c1NC(=S)N/N=C(\C)c1ccc(-c2ncn(-c3ccc(OC(F)(F)F)cc3)n2)cc1 [Compound 110],50 to 100,50 to 100
Cc1cc(C)c(NC(=S)N/N=C/c2ccc(-c3ncn(-c4ccc(OC(F)(F)F)cc4)n3)cc2)c(C)n1 [Compound 106],50 to 100,50 to 100
C=C(C)c1ccccc1NC(=S)N/N=C/c1ccc(-c2ncn(-c3ccc(OC(F)(F)F)cc3)n2)cc1 [Compound 91],50 to 100,50 to 100
Cc1cc(C)c(NC(=O)N/N=C/c2ccc(-c3ncn(-c4ccc(OC(F)(F)F)cc4)n3)cc2)c(C)c1 [Compound 118],50 to 100,50 to 100
CC(NC(=S)N/N=C/c1ccc(-c2ncn(-c3ccc(OC(F)(F)F)cc3)n2)cc1)c1ccsc1 (stereo not drawn) [Compound 155],50 to 100,50 to 100
FC(F)(F)Oc1ccc(-n2cnc(-c3ccc(/C=N/NC(=S)Nc4c(Br)cccc4Br)cc3)n2)cc1 [Compound 48],50 to 100,50 to 100
COc1cc(F)c(NC(=S)N/N=C/c2ccc(-c3ncn(-c4ccc(OC(F)(F)F)cc4)n3)cc2)c(F)c1 [Compound 108],50 to 100,50 to 100
CC(C)c1cccc(C(C)C)c1NC(=S)N/N=C/c1ccc(-c2ncn(-c3ccc(OC(F)(F)F)cc3)n2)cc1 [Compound 107],50 to 100,50 to 100
COc1ccccc1C(C)NC(=S)N/N=C/c1ccc(-c2ncn(-c3ccc(OC(F)(F)F)cc3)n2)cc1 (stereo not drawn) [Compound 148],50 to 100,50 to 100
COc1cc(OC)c(NC(=S)N/N=C/c2ccc(-c3ncn(-c4ccc(OC(F)(F)F)cc4)n3)cc2)c(OC)c1 [Compound 88],50 to 100,50 to 100
COC(=O)C1CC(c2ccc(/C=N/NC(=S)Nc3c(Cl)cccc3Cl)cc2)=NN1c1ccc(OC(F)(F)F)cc1 (stereo not drawn) [Compound 131],50 to 100,50 to 100

Compound,mortality at 50 µg/cm2 [1] [%],mortality at 50 µg/cm2 [2] [%]
CCN(/N=C/c1ccc(-c2ncn(-c3ccc(OC(F)(F)F)cc3)n2)cc1)C(=S)Nc1ccc(OC)cc1C [Compound 86],50 to 100,50 to 100
COc1cc(C)c(NC(=S)N/N=C/c2ccc(-c3ncn(-c4ccc(OC(F)(F)F)cc4)n3)cc2)c(C)c1 [Compound 116],50 to 100,50 to 100
CCCc1ccccc1NC(=S)N/N=C/c1ccc(-c2ncn(-c3ccc(OC(F)(F)F)cc3)n2)cc1 [Compound 82],50 to 100,50 to 100
COCc1ccc(C(C)NC(=S)N/N=C/c2ccc(-c3ncn(-c4ccc(OC(F)(F)F)cc4)n3)cc2)cc1 (stereo not drawn) [Compound 157],50 to 100,50 to 100
Cc1ccc(C(C)NC(=S)N/N=C/c2ccc(-c3ncn(-c4ccc(OC(F)(F)F)cc4)n3)cc2)cc1 (stereo not drawn) [Compound 144],50 to 100,50 to 100
CC(NC(=S)N/N=C/c1ccc(-c2ncn(-c3ccc(OC(F)(F)F)cc3)n2)cc1)c1ccc(Br)cc1 (stereo not drawn) [Compound 146],50 to 100,50 to 100
COc1cc(C)ccc1NC(=S)N/N=C/c1ccc(-c2ncn(-c3ccc(OC(F)(F)F)cc3)n2)cc1 [Compound 117],50 to 100,50 to 100
Cc1ccc(NC(=S)N/N=C/c2ccc(-c3ncn(-c4ccc(OC(F)(F)F)cc4)n3)cc2)c(C(C)C)c1 [Compound 96],50 to 100,50 to 100
CSc1cc(C)c(NC(=S)N/N=C/c2ccc(-c3ncn(-c4ccc(OC(F)(F)F)cc4)n3)cc2)c(C)c1 [Compound 100],50 to 100,50 to 100
FC(F)(F)Oc1ccc(-n2cnc(-c3ccc(/C=N/NC(=S)NCc4ccsc4)cc3)n2)cc1 [Compound 154],50 to 100,50 to 100
C/C(=N\NC(=S)Nc1c(C)cccc1C)c1ccc(-c2cnn(-c3ccc(OC(F)(F)F)cc3)c2)cc1 [Compound 139],50 to 100,50 to 100
Fc1cccc(Br)c1NC(=S)N/N=C/c1ccc(-c2ncn(-c3ccc(OC(F)(F)F)cc3)n2)cc1 [Compound 105],50 to 100,50 to 100
COC(=O)c1ccccc1NC(=S)N/N=C/c1ccc(-c2ncn(-c3ccc(OC(F)(F)F)cc3)n2)cc1 [Compound 84],< 50,< 50
Cc1ncccc1NC(=S)N/N=C/c1ccc(-c2ncn(-c3ccc(OC(F)(F)F)cc3)n2)cc1 [Compound 99],50 to 100,50 to 100
Cc1ccsc1CNC(=S)N/N=C/c1ccc(-c2ncn(-c3ccc(OC(F)(F)F)cc3)n2)cc1 [Compound 156],50 to 100,50 to 100
CC(C)(C)c1ccccc1NC(=S)N/N=C/c1ccc(-c2ncn(-c3ccc(OC(F)(F)F)cc3)n2)cc1 [Compound 83],< 50,< 50
CC(NC(=S)N/N=C/c1ccc(-c2ncn(-c3ccc(OC(F)(F)F)cc3)n2)cc1)c1ccc2c(c1)OCO2 (stereo not drawn) [Compound 159],50 to 100,50 to 100
COc1ccc(C)cc1NC(=S)N/N=C/c1ccc(-c2ncn(-c3ccc(OC(F)(F)F)cc3)n2)cc1 [Compound 89],50 to 100,50 to 100
CC(NC(=S)N/N=C/c1ccc(-c2ncn(-c3ccc(OC(F)(F)F)cc3)n2)cc1)c1ccccc1 (stereo not drawn) [Compound 152],50 to 100,50 to 100
